Source: US12295396B2, “Antagonists of T2R54 and compositions and uses thereof” (Firmenich Incorporated, priority 2018, dated 2025)

Biological target: T1, hT2R54 (Homo sapiens, UniProt P59534)
T1 construct: expressed in transfected cells; it overexpresses a promiscuous G protein
T1 sequence (P59534 1-338): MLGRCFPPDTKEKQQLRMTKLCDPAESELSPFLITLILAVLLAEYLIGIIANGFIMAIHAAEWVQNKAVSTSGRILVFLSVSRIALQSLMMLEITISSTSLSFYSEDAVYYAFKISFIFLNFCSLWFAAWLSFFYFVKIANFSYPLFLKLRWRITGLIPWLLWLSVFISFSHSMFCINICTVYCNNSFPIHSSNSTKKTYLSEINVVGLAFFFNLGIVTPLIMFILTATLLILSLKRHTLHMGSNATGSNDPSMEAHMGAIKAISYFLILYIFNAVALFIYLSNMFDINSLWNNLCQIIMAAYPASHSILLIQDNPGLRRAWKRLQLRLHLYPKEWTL
Test: Cell-based assay for measuring hT2R54 inhibition (FLIPR calcium, Fluo4AM, acetaminophen as bitter agonist)
Conditions: Table 2; cells stably expressing hT2R54 and a promiscuous G protein; read-out: hT2R54 IC50
In short: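 The readout was FLIPR calcium (Fluo4AM, 10 s baseline, 3 min post-addition) in cells stably carrying hT2R54 plus a promiscuous G protein, with host cells lacking hT2R54 as counter-control. Acetaminophen concentration series were tested with and without set test-compound levels. Half-maximal block of the agonist response gave the EC50/IC50.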

Row | IC50 [nM] | SMILES
1 | 21 | CC(=O)c1cc2c(cc1NC(=O)CN1CCN(C(=O)C3CCCO3)CC1)OCO2 (stereo not drawn) [compound 22]
2 | 16 | CC(=O)c1cc2c(cc1NC(=O)CN1CCN(C(=O)CC(C)C)CC1)OCO2 [Cmpd 1, N-(6-Acetylbenzo[d][1,3]dioxol-5-yl)-2-(4-(3-methylbutanoyl)piperazin-1-yl)acetamide]
3 | 91 | CC(=O)c1cc2c(cc1NC(=O)CN1CCN(C(=O)c3conc3C)CC1)OCO2 [compound 298]
4 | 60 | CC(=O)c1cc2c(cc1NC(=O)CN1CCN(C(=O)c3cnco3)CC1)OCO2 [compound 72]
5 | 34 | CC(=O)c1cc2c(cc1NC(=O)CN1CCN(C(=O)NC(C)C)CC1)OCO2 [compound 4, 4-(2-((6-Acetylbenzo[d][1,3]dioxol-5-yl)amino)-2-oxoethyl)-N-isopropylpiperazine-1-carboxamide]

Further lines, the compound ahead of its results:

Row | SMILES | IC50 [nM]
6 | COc1ccccc1CC(=O)N1CCN(CC(=O)Nc2cc3c(cc2C(C)=O)OCO3)CC1 [compound 54] | 24
7 | CC(=O)c1cc2c(cc1NC(=O)CN1CCN(C(=O)c3ccccc3O)CC1)OCO2 [compound 40] | 80
8 | CC(=O)c1cc2c(cc1NC(=O)CN1CCN(C(=O)c3ccccc3)CC1)OCO2 [compound 34] | 20
9 | CC(=O)c1cc2c(cc1NC(=O)CN1CCN(C(=O)c3cccnc3)CC1)OCO2 [compound 42] | 60
10 | CC(=O)c1cc2c(cc1NC(=O)C(C)N1CCN(C(=O)C3CCCO3)CC1)OCO2 (stereo not drawn) [compound 318] | 60
11 | CC(=O)c1cc2c(cc1NC(=O)CN1CCN(C(=O)Cc3cccs3)CC1)OCO2 [compound 65] | 30
12 | CC(=O)c1cc2c(cc1NC(=O)CN1CCN(C(=O)c3cscn3)CC1)OCO2 [compound 285] | 34
13 | COC(=O)c1cc2c(cc1NC(=O)CN1CCN(C(C)=O)CC1)CCCC2 [compound 353] | 2100
14 | COc1cc2c(cc1NC(=O)CN1CCN(C(=O)Cc3ccccc3F)CC1)OCO2 [compound 376] | 200
15 | CC(=O)c1cc2c(cc1NC(=O)C(C)N1CCN(C(=O)[C@@H]3CCCO3)CC1)OCO2 (stereo partly drawn) [compound 316] | 80
16 | COCc1ccc(C(=O)N2CCN(CC(=O)Nc3cc4c(cc3C(C)=O)OCO4)CC2)s1 [compound 289] | 21

Same assay, conditions: Table 4; cells stably expressing hT2R54 and a promiscuous G protein; read-out: hT2R54 IC50

Row | IC50 [nM] | SMILES
17 | 65 | COC1CCN(CC(=O)Nc2cc3c(cc2C(C)=O)OCO3)CC1 [compound 121]
18 | 152 | CCOC(=O)C1CCCN(CC(=O)Nc2cc3c(cc2Cl)OCCO3)C1 (stereo not drawn) [compound 151]
19 | 78 | CCOC(=O)C1CCCCN1CC(=O)Nc1cc2c(cc1C(C)=O)OCO2 (stereo not drawn) [compound 113, Ethyl 1-(2-((6-Acetylbenzo[d][1,3]dioxol-5-yl)amino)-2-oxoethyl)piperidine-2-carboxylate]
20 | 1280 | CC(=O)c1cc2c(cc1NC(=O)CN1CCCC(NC(=O)OC(C)(C)C)C1)OCO2 (stereo not drawn) [compound 429]

Same assay, conditions: Table 5; cells stably expressing hT2R54 and a promiscuous G protein; read-out: hT2R54 IC50

Row | IC50 [nM] | SMILES
21 | 1270 | CNC(=O)C1CCCCN1CC(=O)Nc1cc2c(cc1C(C)=O)OCO2 (stereo not drawn) [compound 160]
22 | 114 | CC(=O)c1cc2c(cc1NC(=O)CN1CCCC(C(=O)NCc3ccccc3)C1)OCO2 (stereo not drawn) [compound 156]
23 | 497 | CC(=O)c1cc2c(cc1NC(=O)CN1CCCC(C(=O)N3CCOCC3)C1)OCO2 (stereo not drawn) [compound 159]

Same assay, conditions: Table 6; cells stably expressing hT2R54 and a promiscuous G protein; read-out: hT2R54 IC50

Row | IC50 [nM] | SMILES
24 | 140 | CC(=O)c1cc2c(cc1NC(=O)CN1CCC(NC(=O)C(C)C)CC1)OCO2 [compound 168]

Same assay, conditions: Table 8; read-out: hT2R54 IC50

Row | IC50 [nM] | SMILES
25 | 77 | CCCCC(=O)N1CCC(CC(=O)Nc2cc3c(cc2C(C)=O)OCO3)CC1 [compound 235]
26 | > 1000 | CC(=O)c1cc2c(cc1NC(=O)CC1CCN(C(=O)C(C)C)CC1)OCO2 [compound 236]
27 | 682 | CC(=O)c1cc2c(cc1NC(=O)CC1CCN(C(=O)C3CC3)C1)OCO2 (stereo not drawn) [compound 265]
28 | 470 | CC(=O)c1cc2c(cc1NC(=O)CC1CCN(C(=O)C3CC3)CC1)OCO2 [compound 238]

More lines, now with the values behind:

Row | SMILES | IC50 [nM]
29 | CC(=O)c1cc2c(cc1NC(=O)CC1CCCN(S(=O)(=O)c3ccco3)C1)OCO2 (stereo not drawn) [compound 227] | 130
30 | COc1cc2c(cc1NC(=O)CC1CCN(C(=O)Cc3ccco3)CC1)OCO2 [compound 498] | > 10000
31 | COCc1ccc(C(=O)N2CCC(CC(=O)Nc3cc4c(cc3C(=O)OC)OCO4)CC2)cc1 [compound 483] | 640
32 | CC(=O)c1cc2c(cc1NC(=O)CC1CCN(C(=O)c3ncc[nH]3)CC1)OCO2 [compound 462] | 30
33 | CC(=O)c1cc2c(cc1NC(=O)CC1CCCN(C(=O)c3cnn(C)c3)C1)OCO2 (stereo not drawn) [compound 221] | 60
34 | CC(=O)c1cc2c(cc1NC(=O)CC1CCCN(C(=O)CN(C)C)C1)OCO2 (stereo not drawn) [compound 212] | > 1000
35 | CC(=O)c1cc2c(cc1NC(=O)CC1CCN(C(=O)[C@H]3CCCO3)CC1)OCCO2 [compound 495] | 200
36 | COC(=O)c1cc2c(cc1NC(=O)CC1CCCN(C(=O)C3CCCO3)C1)OCO2 (stereo not drawn) [compound 481] | 2200
37 | CC(=O)c1cc2c(cc1NC(=O)CC1CCCN(C(=O)c3cccs3)C1)OCO2 (stereo not drawn) [compound 195, N-(6-Acetylbenzo[d][1,3]dioxol-5-yl)-2-(1-(thiophene-2-carbonyl)piperidin-3-yl)acetamide] | 8

Biological target: T2, T2R61 (Homo sapiens, UniProt P59537)
T2 sequence (P59537 1-309): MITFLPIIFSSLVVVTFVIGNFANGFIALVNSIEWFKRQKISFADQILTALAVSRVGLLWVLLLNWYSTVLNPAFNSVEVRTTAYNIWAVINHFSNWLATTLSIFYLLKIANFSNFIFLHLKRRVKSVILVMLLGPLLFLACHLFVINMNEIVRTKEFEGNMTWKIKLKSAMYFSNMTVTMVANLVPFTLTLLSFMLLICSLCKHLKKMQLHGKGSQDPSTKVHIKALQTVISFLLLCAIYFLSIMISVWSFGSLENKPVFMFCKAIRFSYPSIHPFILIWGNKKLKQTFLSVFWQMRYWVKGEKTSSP
Test: Antagonist activity against a panel of bitter taste receptors (receptor based assay): T2R61
Type: cell-based
Conditions: not given
Excerpt: (§1) Compounds described in this application show potent bitter antagonist effect on T2R54 in receptor based assays. […] Antagonist activity of 1-(6-methyl-2-phenylpyrimidin-4-yl)piperidine-4-carboxamide against a panel of bitter taste receptors is shown in Table 10, with the identity of each T2R as indicated in the left column, and the percentage activity remaining is indicated in the far right column.

Row | bitter blocking effect on T2R61 | SMILES
38 | significant bitter blocking effect | CC(=O)c1cc2c(cc1NC(=O)CN1CCN(C(=O)CC(C)C)CC1)OCO2 [Cmpd 1, N-(6-Acetylbenzo[d][1,3]dioxol-5-yl)-2-(4-(3-methylbutanoyl)piperazin-1-yl)acetamide]

Biological target: T3, T2R64 (Homo sapiens, UniProt P59538)
T3 sequence (P59538 1-309): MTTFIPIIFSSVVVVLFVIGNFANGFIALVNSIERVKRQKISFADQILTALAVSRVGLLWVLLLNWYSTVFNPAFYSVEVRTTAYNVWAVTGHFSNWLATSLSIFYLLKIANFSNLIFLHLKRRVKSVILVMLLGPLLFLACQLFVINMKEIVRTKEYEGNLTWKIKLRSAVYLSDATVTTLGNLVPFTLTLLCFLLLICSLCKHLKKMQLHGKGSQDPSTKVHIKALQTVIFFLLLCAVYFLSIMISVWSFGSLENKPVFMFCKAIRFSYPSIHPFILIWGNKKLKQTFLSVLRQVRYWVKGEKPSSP
Test: Antagonist activity against a panel of bitter taste receptors (receptor based assay): T2R64
Type: cell-based
Conditions: not given
Excerpt: as §1

Row | bitter blocking effect on T2R64 | SMILES
39 | significant bitter blocking effect | CC(=O)c1cc2c(cc1NC(=O)CN1CCN(C(=O)CC(C)C)CC1)OCO2 [Cmpd 1, N-(6-Acetylbenzo[d][1,3]dioxol-5-yl)-2-(4-(3-methylbutanoyl)piperazin-1-yl)acetamide]

Biological target: T4, T2R75 (Homo sapiens, UniProt P59540)
T4 sequence (P59540 1-309): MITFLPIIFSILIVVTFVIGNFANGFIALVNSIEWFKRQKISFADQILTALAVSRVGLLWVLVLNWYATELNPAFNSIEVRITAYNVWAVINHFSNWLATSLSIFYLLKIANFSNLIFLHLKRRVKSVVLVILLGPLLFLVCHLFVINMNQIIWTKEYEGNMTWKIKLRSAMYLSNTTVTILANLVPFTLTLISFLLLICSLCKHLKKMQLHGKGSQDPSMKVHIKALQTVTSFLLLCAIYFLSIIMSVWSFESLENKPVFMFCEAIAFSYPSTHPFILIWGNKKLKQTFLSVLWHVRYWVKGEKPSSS
Test: Antagonist activity against a panel of bitter taste receptors (receptor based assay): T2R75
Type: cell-based
Conditions: not given
Excerpt: as §1

Row | bitter blocking effect on T2R75 | SMILES
40 | significant bitter blocking effect | CC(=O)c1cc2c(cc1NC(=O)CN1CCN(C(=O)CC(C)C)CC1)OCO2 [Cmpd 1, N-(6-Acetylbenzo[d][1,3]dioxol-5-yl)-2-(4-(3-methylbutanoyl)piperazin-1-yl)acetamide]

Test system: bitterness of epigallocatechin gallate (EGCg)
Test: Sensory experiments: taste tests comparing EGCg alone with EGCg and a bitter blocker
Type: in vivo, human
Conditions: 600 uM EGCG + 15 uM compound versus 600 uM EGCG alone; 56 in total; p-value 0.044
Protocol: To determine the effectiveness of an individual antagonist in blocking the bitterness, taste tests were performed comparing epigallocatechin gallate (EGCg) alone, which is known to activate T2R54 with EGCg and a bitter blocker described herein, namely compound 22 (Table 2).

Row | SMILES | Total (times sample selected as more bitter)
41 | CC(=O)c1cc2c(cc1NC(=O)CN1CCN(C(=O)C3CCCO3)CC1)OCO2 (stereo not drawn) [compound 22] | 20

Same assay, conditions: taste tests, EGCg alone versus EGCg with bitter blocker

Row | SMILES | reduction of EGCg bitterness
42 | CC(=O)c1cc2c(cc1NC(=O)CN1CCN(C(=O)C3CCCO3)CC1)OCO2 (stereo not drawn) [compound 22] | has the ability to reduce EGCg bitterness
